Assay results published in patent publication US9650348B2, “Triazines with suitable spacers for treatment and/or prevention of HIV infections” (Universiteit Antwerpen, priority 2012, dated 2017).

Key:
[1] = tested on: Ba-L K101E + K103N + V108VI + V179M + Y181C + E138Q; assay: Antiviral activity, NNRTI-resistant virus K101E+K103N+V108VI+V179M+Y181C+E138Q; type: cell-based, HIV-1; details: for FC (*): Ba-L, * = K101E + K103N + V108VI + V179M + Y181C + E138Q; for EC50: Human immunodeficiency virus 1, BAL, read-out: Antiviral activity-NNRTI-resistant viruses EC50 Ba-L *
Method: (§1) The target compounds are evaluated for their anti-HIV-1 activity and cytotoxicity. In a primary screen, the anti-HIV activity against the laboratory strain Ba-L and against a primary subtype C isolate was determined in the TZM-bl cell line. Cellular toxicity on TZM-bl cells was evaluated using WST-1. Based on the primary screening results, the target compound was further evaluated for anti-HIV activity in different primary cells, including peripheral blood mononuclear cells, dendritic cells and CD4+ T lymphocytes. In addition, the activity against NNRTI-resistant viruses (V106A, Y181C, L100I+K103N, L100I+E138K+T369I and K101E+K103N+V108VI+V179M+Y181C+E138Q) was tested. Diarylpyrimidines (DAPY) TMC120, TMC125 and TMC278 were used as reference compounds.

HIV-1 BaL = assay: TZM-bl antiviral assay, wild type HIV-1 Ba-L; type: cell-based; details: Human immunodeficiency virus 1, BAL; TZM-bl cells, Ba-L wild type; read-out: Antiviral activity-wild type viruses EC50 TZM-bI Ba-L
Method: (§2) The JC53-BL cell line, also known as the TZM-bl cell line (NIH AIDS Research and Reference Reagent Program, Germantown, USA), was used for the evaluation of anti-HIV activity. TZM-bl cells were cultured in Dulbecco's […] (DMEM) (Lonza) containing 10% heat-inactivated FBS and 50 μg gentamycin/mL at 37° C. in a humidified 5% CO2, 95% air environment. Twice a week the cells were treated with 0.25% trypsin-1 mM EDTA (Lonza) for 10 minutes. The resulting cell suspension was washed with an equivalent amount of TZM-bl medium and subsequently seeded in a T75 culture flask (Greiner Bio-One, Germany) at 10^6 cells in 20 mL medium.
(§3) The antiviral activity of the newly designed compounds was measured by pre-incubating ten thousand TZM-bl cells (at 10^5 cells/mL in culture medium supplemented with 30 μg/mL DEAE dextran) in a 96-well plate for 30 minutes at 37° C., 5% CO2 in the presence or absence of serial dilutions of the respective compound. Subsequently, 200 TCID50 of HIV-1 BaL was added to each well and cultures were incubated for 48 hours before quantifying luciferase activity, using a TriStar LB941 luminometer (Berthold Technologies GmbH & Co. KG, Bad Wildbad, Germany). Each condition was evaluated in triplicate wells and in at least two independent experiments. The antiviral activity of the compound was expressed as the percentage of viral inhibition compared to the untreated controls and subsequently plotted against the compound concentration.
(§4) The target compounds are evaluated for their anti-HIV-1 activity and cytotoxicity. In a primary screen, the anti-HIV activity against the laboratory strain Ba-L and against a primary subtype C isolate was determined in the TZM-bl cell line. Cellular toxicity on TZM-bl cells was evaluated using WST-1. […] In addition, the activity against NNRTI-resistant viruses (V106A, Y181C, L100I+K103N, L100I+E138K+T369I and K101E+K103N+V108VI+V179M+Y181C+E138Q) was tested. Diarylpyrimidines (DAPY) TMC120, TMC125 and TMC278 were used as reference compounds.

in vitro = type: cell-based; details: human, Cytotoxicity CC50 TZM-bI
Description: The Water Soluble Tetrazolium-1 (WST-1) Cell Proliferation Assay is a colorimetric assay for the measurement of cell proliferation and viability. The assay is based on the cleavage of the tetrazolium salt WST-1 (4-[3-(4-iodophenyl)-2-(4-nitrophenyl)-2H-5-tetrazolio]-1,3-benzene disulfonate) to a formazan dye by a complex cellular mechanism. This bioreduction is largely dependent on the glycolytic production of NAD(P)H in viable cells. Therefore, the amount of formazan dye formed correlates directly to the number of viable cells in the culture, and can be quantified by measuring the absorbance at 450 nm in a multiwell plate reader. The greater the number of viable cells, the greater the amount of formazan dye produced following the addition of WST-1. Cytotoxicity of each compound was evaluated using this WST-1 viability assay, according to the manufacturer's instructions (Roche, Vilvoorde, Belgium).
Briefly, ten thousand TZM-bl cells were seeded in a 96-well plate and cultured for 2 days in the presence of a serial dilution of compound. After this 48 h exposure, Cell Proliferation Reagent, WST-1, was added and absorbance at 450 nm was quantified after 90 min using a microplate reader (BioRad, Tokio, Japan). Each compound was tested in three replicate wells and in at least two independent experiments.
as §4

VI829 L100I+K103N = assay: Antiviral activity, NNRTI-resistant virus L100I+K103N; type: cell-based, HIV-1; details: for EC50: Human immunodeficiency virus 1, read-out: Antiviral activity-NNRTI-resistant viruses EC50 VI829 L100I+K103N; for FC (L100I+K103N): VI829 L100I+K103N
Method: as §4

VI829 L100I+E138K+T369I = assay: Antiviral activity, NNRTI-resistant virus L100I+E138K+T369I; type: cell-based, HIV-1; details: VI829, ** = L1001 + E138K + T3691
Method: as §1

VI829 Y181C = assay: Antiviral activity, NNRTI-resistant virus Y181C; type: cell-based, HIV-1; details: for EC50: Human immunodeficiency virus 1, read-out: Antiviral activity-NNRTI-resistant viruses EC50 VI829 Y181C; for FC (Y181C): VI829 Y181C
Method: as §4

Ba-L V106A = assay: Antiviral activity, NNRTI-resistant virus V106A; type: cell-based, HIV-1; details: for FC (V106A): Ba-L V106A; for EC50: Human immunodeficiency virus 1, BAL, read-out: Antiviral activity-NNRTI-resistant viruses EC50 Ba-L V106A
Method: as §4

VI829 = assay: TZM-bl antiviral assay, wild type VI829 (primary subtype C isolate); type: cell-based, HIV-1; details: Human immunodeficiency virus 1; TZM-bl cells, VI829 wild type; read-out: Antiviral activity-wild type viruses EC50 TZM-bI VI829
Method: as §2, §3, §4

Compound	FC (*) [1]	EC50 [1]	EC50 (HIV-1 BaL)	CC50 at 48 h (in vitro)	EC50 (VI829 L100I+K103N)	FC (L100I+K103N) (VI829 L100I+K103N)	FC (**) (VI829 L100I+E138K+T369I)	EC50 (VI829 Y181C)	FC (Y181C) (VI829 Y181C)	FC (V106A) (Ba-L V106A)	EC50 (Ba-L V106A)	EC50 (VI829)
CNc1nc(Nc2ccc(C#N)cc2)nc(Nc2c(C)cc(C=CC#N)cc2C)n1 [T4, 4-((4-((4-(2-cyanovinyl)-2,6-dimethylphenyl)amino)-6-(methylamino)-1,3,5-triazin-2-yl)amino)benzonitrile]	39	66 nM	1.7 nM	5910 nM								
Cc1cc(C=CC#N)cc(C)c1Nc1nc(Nc2ccc(C#N)cc2)nc(N(C)C)n1 [T5, 4-((4-((4-(2-cyanovinyl)-2,6-dimethylphenyl)amino)-6-(dimethylamino)-1,3,5-triazin-2-yl)amino)benzonitrile]	78	455 nM	5.8 nM	8060 nM	74 nM	17	31	27 nM	6	2	12 nM	4.4 nM
Cc1cc(C=CC#N)cc(C)c1Nc1nc(Nc2ccc(C#N)cc2)nc(N2CCCCC2)n1 [T7, 4-((4-((4-(2-cyanovinyl)-2,6-dimethylphenyl)amino)-6-(piperidin-1-yl)-1,3,5-triazin-2-yl)amino)benzonitrile]	>55	> 1000 nM	18 nM	> 100000 nM	> 1000 nM	>50	>50	221 nM	12	7	126 nM	19 nM
Cc1cc(C=CC#N)cc(C)c1Nc1nc(Nc2ccc(C#N)cc2)nc(N2CCOCC2)n1 [T8, 4-((4-((4-(2-cyanovinyl)-2,6-dimethylphenyl)amino)-6-morpholino-1,3,5-triazin-2-yl)amino)benzonitrile]	89	634 nM	7.1 nM	11400 nM								
Cc1cc(C=CC#N)cc(C)c1Nc1nc(Nc2ccc(C#N)cc2)nc(N2CCN(C)CC2)n1 [T9, 4-((4-((4-(2-cyanovinyl)-2,6-dimethylphenyl)amino)-6-(4-methylpiperazin-1-yl)-1,3,5-triazin-2-yl)amino)benzonitrile]	37	316 nM	8.5 nM	21200 nM								
N#CC=Cc1cc(F)c(Nc2nc(N)nc(Nc3ccc(C#N)cc3)n2)c(F)c1 [T10, 4-((4-amino-6-((4-(2-cyanovinyl)-2,6-difluorophenyl)amino)-1,3,5-triazin-2-yl)amino)benzonitrile]	1113	590 nM	0.53 nM	21400 nM								
Cc1cc(C=CC#N)cc(C)c1Oc1nc(N)nc(Nc2ccc(C#N)cc2)n1 [T11, 4-((4-amino-6-(4-(2-cyanovinyl)-2,6-dimethylphenoxy)-1,3,5-triazin-2-yl)amino)benzonitrile]	56	62 nM	1.1 nM	19100 nM	17 nM	27	167	4.1 nM	6	2	2.5 nM	0.64 nM
CNc1nc(Nc2ccc(C#N)cc2)nc(Oc2c(C)cc(C=CC#N)cc2C)n1 [T12, 4-((4-(4-(2-cyanovinyl)-2,6-dimethylphenoxy)-6-(methylamino)-1,3,5-triazin-2-yl)amino)benzonitrile]	48	77 nM	1.6 nM	20000 nM	24 nM	15	44	7.4 nM	5	4	6.5 nM	1.6 nM
Cc1cc(C=CC#N)cc(C)c1Oc1nc(Nc2ccc(C#N)cc2)nc(N(C)C)n1 [T13, 4-((4-(4-(2-cyanovinyl)-2,6-dimethylphenoxy)-6-(dimethylamino)-1,3,5-triazin-2-yl)amino)benzonitrile]	231	786 nM	3.4 nM	7850 nM								
Cc1cc(C=CC#N)cc(C)c1Oc1nc(Nc2ccc(C#N)cc2)nc(N2CCCCC2)n1 [T14, 4-((4-(4-(2-cyanovinyl)-2,6-dimethylphenoxy)-6-(piperidin-1-yl)-1,3,5-triazin-2-yl)amino)benzonitrile]	>47	> 1000 nM	21 nM	> 100000 nM								
